Reference: PubChem BioAssay AID602121 (Johns Hopkins Ion Channel Center, 2011)
Calls of active or inactive are those of the source.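 Rule for the calls: active = opens the KCNQ1 potassium channel at some tested dose and gives a fittable dose response curve; inactive = the rest.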

Target: Potassium voltage-gated channel subfamily KQT member 1 (Homo sapiens) (UniProt P51787)
Test: KCNQ1 potassium current enhancement – automated patch clamp, CHO cells, set 2, SAR follow-up (AID 602121)
Details: for current activation: at 30 µM (top of the series)

Chain of Potassium voltage-gated channel subfamily KQT member 1 (Homo sapiens) (P51787 whole entry, looked up): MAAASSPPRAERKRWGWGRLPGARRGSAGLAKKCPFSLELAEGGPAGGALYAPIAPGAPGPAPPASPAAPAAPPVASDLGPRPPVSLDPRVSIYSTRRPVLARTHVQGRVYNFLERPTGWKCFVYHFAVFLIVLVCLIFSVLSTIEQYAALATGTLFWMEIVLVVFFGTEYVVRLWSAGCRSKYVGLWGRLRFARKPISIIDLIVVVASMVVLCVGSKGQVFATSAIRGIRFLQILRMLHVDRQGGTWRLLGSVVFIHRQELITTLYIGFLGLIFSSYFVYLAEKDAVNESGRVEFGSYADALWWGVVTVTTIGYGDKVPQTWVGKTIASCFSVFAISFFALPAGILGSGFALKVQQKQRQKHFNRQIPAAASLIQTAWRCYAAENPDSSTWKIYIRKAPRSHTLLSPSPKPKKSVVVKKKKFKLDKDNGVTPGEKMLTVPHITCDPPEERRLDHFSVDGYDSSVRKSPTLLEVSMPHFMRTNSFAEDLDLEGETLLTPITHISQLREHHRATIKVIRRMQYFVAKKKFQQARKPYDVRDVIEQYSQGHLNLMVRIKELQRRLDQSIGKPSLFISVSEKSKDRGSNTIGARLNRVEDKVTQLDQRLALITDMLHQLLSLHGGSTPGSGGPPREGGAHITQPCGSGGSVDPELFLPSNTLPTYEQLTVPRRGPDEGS

Compound	current activation	EC50
Cc1ccc(S(=O)(=O)N2CCCC[C@@H]2C(=O)Nc2ccc(C)c(Br)c2)cc1	inactive	–
COC(=O)c1cccc(NC(=O)[C@H]2CCCCN2S(=O)(=O)c2ccc(C)cc2)c1	inactive	–
Cc1ccc(S(=O)(=O)N2CCCC[C@@H]2C(=O)Nc2ccc(F)c(C)c2)cc1	–	3350 nM
Cc1ccc(S(=O)(=O)N2CCCC[C@@H]2C(=O)Nc2cccc([N+](=O)[O-])c2)cc1	inactive	–
Cc1ccc(S(=O)(=O)N2CCCC[C@@H]2C(=O)Nc2ccncc2)cc1	inactive	–
CCc1cccc(NC(=O)[C@H]2CCCCN2S(=O)(=O)c2ccc(C)cc2)n1	inactive	–
COc1cccc(NC(=O)[C@H]2CCCCN2S(=O)(=O)c2ccc(C)cc2)c1	inactive	–
Cc1ccc(S(=O)(=O)N2CCCC[C@@H]2C(=O)Nc2ccc(C)c(C)c2)cc1	–	2250 nM
COc1ccc(-c2csc(NC(=O)[C@H]3CCCCN3S(=O)(=O)c3ccc4c(c3)OCO4)n2)cc1	–	778 nM
Cc1ccc(S(=O)(=O)N2CCCC[C@@H]2C(=O)Nc2cccc(C(F)(F)F)c2)cc1	–	3240 nM
Cc1ccc(S(=O)(=O)N2CCCC[C@@H]2C(=O)Nc2ccccc2)cc1	inactive	–
Cc1ccc(S(=O)(=O)N2CCCC[C@@H]2C(=O)Nc2cccc(Cl)n2)cc1	inactive	–
